The test system of one test is Male ICR mice. The test is described as follows: Antinociception, tail-flick test. In kind it is in vivo. The note with it: for % MPE (mean ± S.E.): 20 min after treatment. The method, then:
Male ICR mice, weighing approximately 30 g, obtained from Harlan Laboratories (Indianapolis, Ind.) were provided a light cycle of approximately 6 a.m. to 6 p.m., and the temperature remained approximately 23° C. The mice were placed in the lab and allowed to accommodate to the surroundings the evening prior to testing. Animals were allowed food (Harlan Teklab, Madison, Wis.) and water ad libitum.
The exposure chamber was a modified, inverted, 1-liter separation funnel, housed under a fume hood, which allowed four mice to be simultaneously exposed to the aerosol. Air was drawn through the chamber at a rate of approximately 60 ml/minute and filtered through glass wool (Corning Inc., Corning, N.Y.) and charcoal traps (SKC Inc., Eighty Four, Pa.) upon exiting the exposure chamber. Each actuation of Δ^9-THC or vehicle was delivered once per 5 s and the entire exposure period was 10 min. Mice were exposed to 20, 40 or 60 actuations of aerosolized Δ^9-THC or 60 actuations of vehicle.
Mice were placed in separate clear chambers (16.5 cm×25.5 cm×11.5 cm high) and assessed for hypomotility using a Digiscan Animal Activity Monitor (Omnitech Electronics Inc., Columbus, Ohio) in which the total number of photocell-light beam interruptions was counted. Antinociception was assessed in the tail-flick test (D'Amour, F. E., Smith, D. L., A method for determining loss of pain sensation, J Pharm Exp Ther, 72:74-79 (1941)) with heat intensity adjusted to give baseline latencies ranging from 2.0-4.0 seconds. A cut-off time of 10 seconds was used to limit tissue damage. Percent maximum possible effect (%MPE) was determined according to the following formula:
%MPE=[(test latency-baseline latency)/(cut-off-baseline latency)]*100
A ring-test procedure was used to assess catalepsy. The percent of time during a five minute observation period that mice remained motionless, except for movements related to respiration, while stationed on a 5.7 cm diameter ring stand 23 cm above the laboratory bench, was assessed. Body temperature was assessed by inserting a thermometer probe (Traceable Digital, Control Co., Friendswood, Tex.) 2.5 cm into the rectum. Subjects were assessed for baseline tail-flick latency and rectal temperature prior to drug or vehicle administration. […] Locomotor activity, tail-flick latency, catalepsy, and hypothermia were assessed 5, 20, 40, and 60 minutes, respectively, after aerosol exposure. An additional group of animals was given an i.v. injection of Δ^9-THC (0.3, 1, 3, or 10 mg/kg) or vehicle into a lateral tail vein and assessed in the tail-flick test 20 minutes later. All injections were given in a volume of 0.1 ml per 10 g animal weight.
The statistical analysis of the data was as follows. Data are represented by means±standard error (s.e.). Statistical analysis of the data was performed using Student t-tests (for the physiochemical comparisons of the aerosol), or ANOVA (for pharmacological studies), with significance set at p<0.05. Post hoc tests for significant ANOVAs included either Dunnett's test or Tukey/Kramer post-hoc analysis. […] A sample size of 6-8 mice was used in each group.

Test [1] deals with Spasticity related to multiple sclerosis. The note with it: oral 10 or 15 mg THC, rectal 5 or 10 mg THC; 2 patients; cited from earlier work.
For a further test, the system named is airways. The note with it: nebulized micro-aerosol, propylene glycol vehicle; cited from earlier work.
Test [2] concerns Pain due to advanced cancer. The note with it: oral 5, 10, 15 or 20 mg THC; 10 patients; cited from earlier work.

We go through 1 molecule from patent US6713048B2, “Δ9 tetrahydrocannabinol (Δ9 THC) solution metered dose inhalers and methods of use” (Virginia Commonwealth University, priority 1998, dated 2004).

SMILES strings stand for the structures.

Broadly, the ED50 is the midpoint of the dose-response relation. With `CCCCCc1cc(O)c2c(c1)OC(C)(C)[C@@H]1CCC(C)=C[C@@H]21` (relative stereo) [Δ^9 THC, (6aR-trans)-6a,7,8,10a-tetrahydro-6,6,9-trimethyl-3-pentyl-6H-dibenzo[b,d]-pyran-1-ol], in the test with Male ICR mice (Mus musculus, intravenous, read-out: antinociceptive ED50 (95% C.L.)), the ED50 turned out to be 2.4 mg/kg. Further, the “antinociceptive ED50 (95% C.L.)” value with Male ICR mice (inhalation) is 30 (20-44) actuations. Moreover, the “% MPE (mean ± S.E.)” value in the test on Male ICR mice (inhalation, 20 actuations) turned out to be 37 ± 11 % MPE; with Male ICR mice (inhalation, 40 actuations), 58 ± 14 % MPE; with Male ICR mice (inhalation, 60 actuations) it was 78 ± 11 % MPE; in the test with Male ICR mice (intravenous, 1 mg/kg), 31 ± 8 % MPE; with Male ICR mice (intravenous, 3 mg/kg), 70 ± 14 % MPE; in the test with Male ICR mice (intravenous, 10 mg/kg), 67 ± 11 % MPE. For the same molecule, the “passive mobility and walking ability” value in test [1] was “Improvement in passive”. Further, the “bronchial and systemic effects” value with airways is given as “bronchodilation without systemic effects”. Besides, the appetite entry in test [2] is “appetite stimulation,”. Also, the mood entry in test [2] is on record as “elevated mood”. For the same molecule, the pain entry in test [2] is recorded as “Pain relief”.
